Data from paper PMC11233931, “Remodeling tumor‐associated macrophage for anti‐cancer effects by rational design of irreversible inhibition of mitogen‐activated protein kinase‐activated protein kinase 2” (MedComm, 2024).

Columns and labels:
[1] = biological target: T1, 380 human recombinant protein kinases (Homo sapiens, UniProt Q9UEE5); test: Eurofins kinase selectivity profile against 380 other human recombinant kinases (Table S2); type: biochemical; conditions: DRAK1(h), read-out: Inhibition rate
T1 construct: purchased Eurofins (Celle Lévescault)
T1 sequence (Q9UEE5 1-414): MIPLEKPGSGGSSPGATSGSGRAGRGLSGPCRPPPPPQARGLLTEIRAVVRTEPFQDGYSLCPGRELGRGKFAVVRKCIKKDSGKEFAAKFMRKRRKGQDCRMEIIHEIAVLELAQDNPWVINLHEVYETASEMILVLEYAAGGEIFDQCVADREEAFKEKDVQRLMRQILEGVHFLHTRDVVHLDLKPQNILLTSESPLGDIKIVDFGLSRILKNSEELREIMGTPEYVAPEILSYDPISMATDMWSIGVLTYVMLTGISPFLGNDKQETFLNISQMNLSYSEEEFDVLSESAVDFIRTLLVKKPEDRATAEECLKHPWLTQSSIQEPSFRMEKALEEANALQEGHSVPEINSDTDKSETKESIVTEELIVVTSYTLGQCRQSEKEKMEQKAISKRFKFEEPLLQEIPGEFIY
Outline: (§1)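 Off-target profiling: one compound assayed by a commercial provider over 380 recombinant human protein kinases at various concentrations.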

[2] = biological target: T2, 380 human recombinant protein kinases (Homo sapiens, UniProt Q12866); test: as above; type: biochemical; conditions: Mer(h), read-out: Inhibition rate
T2 construct: purchased Eurofins (Celle Lévescault)
T2 sequence (Q12866 21-999): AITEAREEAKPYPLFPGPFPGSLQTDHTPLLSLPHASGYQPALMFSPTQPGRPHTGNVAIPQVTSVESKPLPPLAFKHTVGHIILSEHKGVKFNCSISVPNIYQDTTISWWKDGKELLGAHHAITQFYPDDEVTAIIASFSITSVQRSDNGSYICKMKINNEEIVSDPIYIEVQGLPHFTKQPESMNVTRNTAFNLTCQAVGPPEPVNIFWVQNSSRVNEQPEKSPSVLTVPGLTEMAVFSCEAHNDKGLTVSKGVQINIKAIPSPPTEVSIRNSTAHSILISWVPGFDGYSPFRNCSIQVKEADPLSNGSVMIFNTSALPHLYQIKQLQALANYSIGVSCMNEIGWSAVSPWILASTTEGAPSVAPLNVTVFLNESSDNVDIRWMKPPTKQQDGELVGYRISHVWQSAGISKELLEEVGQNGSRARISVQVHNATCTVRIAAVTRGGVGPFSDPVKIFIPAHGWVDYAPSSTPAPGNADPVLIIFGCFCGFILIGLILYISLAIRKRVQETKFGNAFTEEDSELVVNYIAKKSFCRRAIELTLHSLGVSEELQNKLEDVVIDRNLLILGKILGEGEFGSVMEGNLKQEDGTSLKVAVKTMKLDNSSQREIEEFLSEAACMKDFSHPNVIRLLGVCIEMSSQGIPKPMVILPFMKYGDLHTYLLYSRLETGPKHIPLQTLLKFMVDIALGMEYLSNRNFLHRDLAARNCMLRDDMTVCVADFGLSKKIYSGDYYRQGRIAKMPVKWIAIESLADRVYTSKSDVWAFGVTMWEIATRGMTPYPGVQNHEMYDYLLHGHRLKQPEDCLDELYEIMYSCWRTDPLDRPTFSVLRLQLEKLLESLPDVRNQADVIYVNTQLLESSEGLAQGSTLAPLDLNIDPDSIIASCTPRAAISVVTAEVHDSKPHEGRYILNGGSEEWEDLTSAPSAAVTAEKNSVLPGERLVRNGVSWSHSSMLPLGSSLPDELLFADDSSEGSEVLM
Outline: as §1

`C=CC(=O)Nc1cc(-c2cc(-c3cc4c([nH]3)CCNC4=O)ccn2)ccc1OC(F)(F)F` [compound 11] showed an inhibition at 0.01 µM ([1]; 10 nM) of 13%, an inhibition at 0.1 µM ([1]; 100 nM) of 41% and an inhibition at 1 µM ([1]; 1000 nM) of 82%. For the same compound, the inhibition at 0.01 µM ([2]; 10 nM) was -21%, the inhibition at 0.1 µM ([2]; 100 nM) was 4% and the inhibition at 1 µM ([2]; 1000 nM) was 28%.
